Reference: the supplement of paper PMC11061612

Experiments:
[1] = tested on: HCC-44 (Lung Adenocarcinoma); assay: combination Emax (second highest fraction inhibited in the dose matrix, 72 h); higher = more inhibition; extreme values may be limits of the assay
How it was run: (§1)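 Cell lines grown in DMEM/F12 or RPMI with 10% FBS were plated in 1536-well plates and held 24 hours at 37°C, 5% CO2 before 72 hours of exposure to two-drug dose matrices, with DMSO typically at 0.2%. CellTiter-Glo 2.0 luminescence gave viability, which was converted to inhibition. Vehicle wells were set to 0 and blank wells to 1. Combination Emax is the second-highest inhibition in the matrix, and Bliss excess is the observed combination effect minus the expected EA + EB − EA·EB, where EA and EB are the single-agent effects.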

[2] = tested on: CML-T1 (Chronic Myelogenous Leukemia); assay: as above
How it was run: as §1

[3] = tested on: COLO-684 (Endometrial Carcinoma); assay: as above
How it was run: as §1

[4] = tested on: KYSE-70 (Esophageal Squamous Cell Carcinoma); assay: as above
How it was run: as §1

[5] = tested on: LOUCY (T-Lymphoblastic Leukemia); assay: as above
How it was run: as §1

[6] = tested on: PC-14 (Lung Adenocarcinoma); assay: as above
How it was run: as §1

[7] = tested on: PANC-02-03 (Pancreatic Carcinoma); assay: as above
How it was run: as §1

[8] = tested on: EB-3 (Burkitt's Lymphoma); assay: as above
How it was run: as §1

[9] = tested on: SW684 (Other Solid Carcinomas); assay: as above
How it was run: as §1

[10] = tested on: RMG-I (Ovarian Carcinoma); assay: as above
How it was run: as §1

[11] = tested on: LAMA-84 (Chronic Myelogenous Leukemia); assay: as above
How it was run: as §1

[12] = tested on: NCI-H810 (Non-Small Cell Lung Carcinoma); assay: as above
How it was run: as §1

KYM-1 (Rhabdomyosarcoma) [13] = assay: as above
How it was run: as §1

[14] = tested on: Becker (Low Grade Glioma); assay: as above
How it was run: as §1

[15] = tested on: OV-90 (Ovarian Carcinoma); assay: as above
How it was run: as §1

CHL-1 (Melanoma) [16] = assay: as above
How it was run: as §1

[17] = tested on: NCI-H1755 (Lung Adenocarcinoma); assay: as above
How it was run: as §1

[18] = tested on: SK-MM-2 (Plasma Cell Myeloma); assay: as above
How it was run: as §1

[19] = tested on: FLO-1 (Esophageal Adenocarcinoma); assay: as above
How it was run: as §1

[20] = tested on: NKM-1 (Acute Myeloid Leukemia); assay: as above
How it was run: as §1

[21] = tested on: HCC-44 (Lung Adenocarcinoma); assay: Bliss excess, mean over the matrix (fraction); higher = more synergy
How it was run: as §1

[22] = tested on: CML-T1 (Chronic Myelogenous Leukemia); assay: as above
How it was run: as §1

[23] = tested on: COLO-684 (Endometrial Carcinoma); assay: as above
How it was run: as §1

[24] = tested on: KYSE-70 (Esophageal Squamous Cell Carcinoma); assay: as above
How it was run: as §1

[25] = tested on: LOUCY (T-Lymphoblastic Leukemia); assay: as above
How it was run: as §1

[26] = tested on: PC-14 (Lung Adenocarcinoma); assay: as above
How it was run: as §1

[27] = tested on: PANC-02-03 (Pancreatic Carcinoma); assay: as above
How it was run: as §1

[28] = tested on: EB-3 (Burkitt's Lymphoma); assay: as above
How it was run: as §1

[29] = tested on: SW684 (Other Solid Carcinomas); assay: as above
How it was run: as §1

[30] = tested on: RMG-I (Ovarian Carcinoma); assay: as above
How it was run: as §1

[31] = tested on: LAMA-84 (Chronic Myelogenous Leukemia); assay: as above
How it was run: as §1

[32] = tested on: NCI-H810 (Non-Small Cell Lung Carcinoma); assay: as above
How it was run: as §1

KYM-1 (Rhabdomyosarcoma) [33] = assay: as above
How it was run: as §1

[34] = tested on: Becker (Low Grade Glioma); assay: as above
How it was run: as §1

[35] = tested on: OV-90 (Ovarian Carcinoma); assay: as above
How it was run: as §1

CHL-1 (Melanoma) [36] = assay: as above
How it was run: as §1

[37] = tested on: NCI-H1755 (Lung Adenocarcinoma); assay: as above
How it was run: as §1

[38] = tested on: SK-MM-2 (Plasma Cell Myeloma); assay: as above
How it was run: as §1

[39] = tested on: FLO-1 (Esophageal Adenocarcinoma); assay: as above
How it was run: as §1

[40] = tested on: NKM-1 (Acute Myeloid Leukemia); assay: as above
How it was run: as §1
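Wherever Bliss excess, mean over the matrix is given: after 72 h of two-drug dosing.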

SMILES	combination Emax [1]	combination Emax [2]	combination Emax [3]	combination Emax [4]	combination Emax [5]	combination Emax [6]	combination Emax [7]	combination Emax [8]	combination Emax [9]	combination Emax [10]	combination Emax [11]	combination Emax [12]	combination Emax (KYM-1 (Rhabdomyosarcoma) [13])	combination Emax [14]	combination Emax [15]	combination Emax (CHL-1 (Melanoma) [16])	combination Emax [17]	combination Emax [18]	combination Emax [19]	combination Emax [20]	Bliss excess [21]	Bliss excess [22]	Bliss excess [23]	Bliss excess [24]	Bliss excess [25]	Bliss excess [26]	Bliss excess [27]	Bliss excess [28]	Bliss excess [29]	Bliss excess [30]	Bliss excess [31]	Bliss excess [32]	Bliss excess (KYM-1 (Rhabdomyosarcoma) [33])	Bliss excess [34]	Bliss excess [35]	Bliss excess (CHL-1 (Melanoma) [36])	Bliss excess [37]	Bliss excess [38]	Bliss excess [39]	Bliss excess [40]
C[C@@H](Nc1cc(F)cc(F)c1)c1cc(C(=O)N(C)C)cc2c(=O)cc(N3CCOCC3)oc12 [AZD8186] + CC(=O)c1c(C)c2cnc(Nc3ccc(N4CCNCC4)cn3)nc2n(C2CCCC2)c1=O [Palbociclib] (first compound max 10 µM, 7x7, partner max 10 µM)	0.728	0.931	0.729	0.355	0.504	0.469	0.343	0.399	0.503	0.497	0.554	0.371	0.702	0.628	0.137	0.458	0.602	0.35	0.599	0.83	0.0091	-0.0045	0.0174	-0.0106	0.187	0.0852	-0.0157	0.0129	-0.0005	0.0104	0.083	-0.0224	-0.031	0.127	-0.0541	0.0104	0.069	0.0299	0.0479	-0.0435
C=CCn1c(=O)c2cnc(Nc3ccc(N4CCN(C)CC4)cc3)nc2n1-c1cccc(C(C)(C)O)n1 [AZD1775] + Nc1ccn([C@@H]2O[C@H](CO)[C@@H](O)C2(F)F)c(=O)n1 [Gemcitabine] (first compound max 1 µM, partner max 0.3 µM)	0.916	0.998	0.718	0.565	0.995	0.917	0.588	0.811	0.382	0.401	0.963	0.828	0.999	0.584	0.555	0.725	0.786	0.623	0.904	1	0.0711	0.0273	-0.0674	-0.002	0.108	0.0198	0.0035	0.0105	-0.0333	-0.0608	0.0286	-0.0695	0.0009	0.0271	-0.0166	0.0089	0.0304	0.0664	0.0955	0.0002
N#Cc1cnc(Nc2cc(NC[C@H]3CNCCO3)c(C(F)(F)F)cn2)cn1 [SRA737] + C=CCn1c(=O)c2cnc(Nc3ccc(N4CCN(C)CC4)cc3)nc2n1-c1cccc(C(C)(C)O)n1 [AZD1775] (first compound max 10 µM, partner max 1 µM)	0.732	1	0.864	0.561	1	0.882	0.42	0.798	0.277	0.35	0.943	0.81	0.947	0.705	0.425	0.837	0.77	0.452	0.803	0.976	0.0685	0.0611	0.0602	0.0613	0.138	0.0602	-0.0172	0.0314	-0.0677	-0.0477	0.0718	0.0718	0.0382	0.176	-0.0401	0.0512	-0.0377	0.0284	-0.0189	0.0732
CN(CCO)CC[C@H](CSc1ccccc1)Nc1ccc(S(=O)(=O)NC(=O)c2ccc(N3CCC([C@@H](O)c4ccccc4-c4ccc(Cl)cc4)CC3)cc2)cc1S(=O)(=O)C(F)(F)F [AZD4320] + Nc1ccn([C@@H]2O[C@H](CO)[C@@H](O)C2(F)F)c(=O)n1 [Gemcitabine] (first compound max 1 µM, 7x7, partner max 0.3 µM)	0.641	1	0.429	0.159	1	0.699	0.482	0.469	0.524	0.866	0.979	0.593	1	0.8	0.88	0.686	0.463	1	0.776	1	0.0237	-0.0189	-0.0157	-0.0342	0.0431	0.0292	-0.071	0.0031	-0.0442	0.0063	0.0346	-0.0458	0.001	0.0818	0.0718	0.0768	-0.0211	0.0061	0.0443	0.0029
Cc1c2c(nn1C)CSCc1cc(n(C)n1)CSc1cc(c3ccccc3c1)OCCCc1c(C(=O)O)n(C)c3c-2c(Cl)ccc13 [AZD5991] + Nc1ccn([C@@H]2O[C@H](CO)[C@@H](O)C2(F)F)c(=O)n1 [Gemcitabine] (first compound max 1 µM, 7x7, partner max 0.3 µM)	0.598	0.991	0.573	0.141	0.774	0.692	0.366	0.377	0.253	0.367	0.939	0.597	1	0.567	0.505	0.785	0.435	0.351	0.823	1	-0.0513	-0.0219	-0.0376	-0.0423	0.131	0.0171	-0.053	0.0273	-0.0767	-0.0592	0.0095	0.0467	0.0209	-0.033	-0.0251	0.0685	0.0224	-0.0172	-0.0134	-0.0275
Cc1c2c(nn1C)CSCc1cc(n(C)n1)CSc1cc(c3ccccc3c1)OCCCc1c(C(=O)O)n(C)c3c-2c(Cl)ccc13 [AZD5991] + CC(=O)O[C@H]1C(=O)[C@@]2(C)[C@H]([C@H](OC(=O)c3ccccc3)[C@]3(O)C[C@H](OC(=O)[C@H](O)[C@@H](NC(=O)c4ccccc4)c4ccccc4)C(C)=C1C3(C)C)[C@]1(OC(C)=O)CO[C@@H]1C[C@@H]2O [Paclitaxel] (first compound max 1 µM, 7x7, partner max 3 µM)	0.83	0.954	0.558	0.534	0.898	0.947	0.427	0.685	0.52	0.322	0.895	0.871	1	0.982	0.379	1	0.734	0.34	0.928	1	-0.0764	-0.0139	0.0057	0.0855	-0.051	-0.0298	-0.0131	-0.0558	-0.0818	-0.0514	-0.0161	0.125	0.0663	0.0068	0.0575	0.0482	-0.0385	0.0033	-0.0172	0.0294
